Data set [1] has as its system Mushroom-derived tyrosinase. Put plainly: Tyrosinase inhibitory effect. The class given is biochemical. To be noted: 1 mM L-tyrosin, pH 6.5, 25° C., 30 minutes, OD492; compared with kojic acid (positive control); FIGS. 4 to 6. The method, then:
Mushroom-derived tyrosinase was sued as an enzyme source in the present experiment. Tyrosinase activities were assayed according to a slightly-modified conventionally known method (Life Sci., 1999, 65, 241-246). In detail, 20 μl of a mushroom-derived tyrosinase (1000 units) aqueous solution was added to 96-well microplate (Nunc, Denmark) to prepare 200 μl of the total volume of assay mixture containing 1 mM L-tyrosin solution and 50 mM phosphate buffer solution (pH 6.5). The assay mixture was cultured at a temperature of 25° C. for 30 minutes. After the culturing, an amount of the produced DOPA chrome in the reaction mixture was measured by using a microplate reader (Hewlett Packard) at 492 nm (OD492).

Data set [2] has as its system ROS generated by vascular endothelial cells (YPEN-1). Description: In vitro ROS scavenging activity assay (DCFDA) in YPEN-1 vascular endothelial cells. The format is cell-based, rat. The settings on record: YPEN-1 cells pre-treated with 50 μM SIN-1 for 1 hour; DCFDA fluorescence; compared with trolox (positive control); FIGS. 1 to 3. The protocol: YPEN-1 cells (rat prostatic endothelial cell line) was obtained from American type culture collection (ATCC, Manassas, Va., USA), and the cells were cultured by using a dulbecco's modified eagle medium (DMEM, Nissui, Tokyo, Japan) containing 2 mM L-glutamine, […], 2.5 mg/L amphotericin B, and 5% inactivated fetal bovine serum (FBS). Also, the cells were maintained at a temperature of 37° C. in a humid atmosphere-like condition containing 5% CO2 and 95% air. […] The cells were sub-cultured in 100 mm plastic flask (Corning Co., New York, USA) every two days to maintain the cell line.
Since the oil-soluble DCFDA was deacetylated into non-fluorescent DCFH due to esterase or oxidative hydrolysis and the DCFH was oxidized due to activity oxgyen to produce highly-fluorescent 2′,7′-dichlorofluorescein (DCF), the present measurement was performed at an excitation wavelength of 485 nm and an emission wavelength of 530 nm by using a fluorophotometer (GENios, TECAN). Vascular endothelial cells that were pre-treated with 50 μM 3-morpholinosydnonimine hydrochloride (SIN-1) for 1 hour were used as a reactive oxygen generation source.

Data set [3] deals with male Balb/c mouse. Put plainly: Toxicity test, single oral administration. The class given is in vivo. To be noted: single oral dose 0.5, 1 and 2 g/kg in 0.5% methylcellulose, observed 7 days. The protocol:
A suspension of each of Compound 3, Compound 15, Compound 50, Compound 85, Compound 93, and Compound 115 in a 0.5% methylcellulose solution was orally administered once to a male Balb/c mouse in dosages of 0.5 g/kg, 1 g/kg, and 2 g/kg, and then the survival rate and body weight of the mouse was recorded for 7 days.
After the administration, whether the mouse died, clinical symptoms occurred, and body weight changed were identified and hematologic examination and blood biochemical examination were performed, and autopsy was performed to identify with naked eyes states of abdominal cavity organs and thoracic cavity organs.

Data set [4] has as its target T1, PPAR gamma-LBD (Homo sapiens, UniProt P37231).
T1 construct: 10 μl of 4×PPAR gamma-LBD/Tb-anti-GST antibody
T1 sequence (P37231 238-503 limits assumed): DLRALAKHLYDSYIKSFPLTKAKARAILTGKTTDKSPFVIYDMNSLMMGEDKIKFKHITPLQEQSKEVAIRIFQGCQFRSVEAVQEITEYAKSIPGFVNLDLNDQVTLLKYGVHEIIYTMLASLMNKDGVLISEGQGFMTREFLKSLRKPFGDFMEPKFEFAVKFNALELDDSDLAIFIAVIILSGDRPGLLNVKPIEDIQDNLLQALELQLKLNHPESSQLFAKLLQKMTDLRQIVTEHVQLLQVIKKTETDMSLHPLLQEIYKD
Description: PPAR gamma assay (fluormone Pan-PPAR green competition, Tb-anti-GST antibody). To be noted: sample final concentration 100 M (so in the source); compared with rosiglitazone (positive control); FIG. 8. The class given is binding. The method, then:
20 μl of a sample and 10 μl of 4× fluormone Pan-PPAR green were spread onto 384 well plates, and 10 μl of 4×PPAR alpha-LBD/Tb-anti-GST antibody or 10 μl of 4×PPAR gamma-LBD/Tb-anti-GST antibody were respectively used in PPAR alpha assay and PPAR gamma assay. In this regard, a sample compound was dissolved in such an amount of DMSO that made a final concentration of the sample to be 100 µM, and the DMSO final concentration was maintained within 1%. The reaction mixture was left at room temperature for 2 to 6 hours, and then, the absorption thereof was measured by using a microplate reader (Hewlett Packard) at an excitation wavelength of 340 nm and at an emission wavelength of 485 nm, and at an exitation wavelength of 340 nm and an emission wavelength of 520 nm to calculate a value of 520 nm/485 nm. In this regard, if a negative control was assumed to have an absorption value of 100, a competitive activation rate was defined as follows: 100 minus an absorption value of each sample. That is, the competitive activation rate indicates a binding ratio of the respective samples with respect to the negative control. […]

For data set [5], the target named is T2, PPAR alpha-LBD (Homo sapiens, UniProt Q07869).
T2 construct: 10 μl of 4×PPAR alpha-LBD/Tb-anti-GST antibody
T2 sequence (Q07869 239-466 limits assumed): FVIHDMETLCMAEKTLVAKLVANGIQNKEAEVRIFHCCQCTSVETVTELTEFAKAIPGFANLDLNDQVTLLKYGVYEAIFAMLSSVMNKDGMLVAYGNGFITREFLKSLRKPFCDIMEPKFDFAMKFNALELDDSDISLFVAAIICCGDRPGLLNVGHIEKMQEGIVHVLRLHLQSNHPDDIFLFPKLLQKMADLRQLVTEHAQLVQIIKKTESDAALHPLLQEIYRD
The format is binding. The settings on record: sample final concentration 100 M (so in the source); compared with fenofibrate (positive control); FIG. 7.

“Also recorded” adds a separate entry of the source.

With `O=C1NC(=S)NC(=O)C1=Cc1ccc(O)c(O)c1` [Compound 50, 5-(3,4-dihydroxybenzylidene)-2-thioxodihydropyrimidine-4,6(1H,5H)-dione], the tyrosinase inhibitory activities result in data set [1] was “better tyrosinase inhibitory activities than a kojic acid”. Further, in data set [2], the “scavenging effects on ROS generated by vascular endothelial cells” value is “as high scavenging effects on ROS generated by vascular endothelial cells as trolox”. Also, in data set [3], the “death and clinical symptoms” value is given as “neither had distinctive clinical symptoms nor died”; the “toxicity change (body weight change, hematologic examination, blood biochemical examination, autopsy)” value was “toxicity change was not identified”.
Take `CC(=O)Oc1ccc(/C=C2\N=C(C)OC2=O)c(O)c1` [Compound 85, (Z)-3-hydroxy-4-((2-methyl-5-oxooxazol-4(5H)-ylidene)methyl)phenyl acetate]: the “PPARγ activities (competitive activation rate)” value in data set [4] was “simultaneously activates PPARα and PPARγ”. For the same compound, the “PPARα activities (competitive activation rate)” value in data set [5] was “very excellent PPARα activation agent compared to fenofibrate; also recorded: simultaneously activates PPARα and PPARγ”.
Take `CC1=N/C(=C\c2ccccc2O)C(=O)O1` [Compound 93, (Z)-4-(2-hydroxybenzylidene)-2-methyloxazol-5(4H)-one]: the “PPARγ activities (competitive activation rate)” value in data set [4] is “simultaneously activates PPARα and PPARγ”. In data set [5], the “PPARα activities (competitive activation rate)” value was “very excellent PPARα activation agent compared to fenofibrate; also recorded: simultaneously activates PPARα and PPARγ”.

The values above are taken from patent US9896421B2, “Compound having skin-whitening, anti-oxidizing and PPAR activities and medical use thereof” (Pusan National University Industry-University Cooperation …, priority 2011, dated 2018).
